Results reported in paper PMC10343887, “Structural Optimization of BIPPO Analogs as Potent Antimalarials” (Molecules, 2023).

Key:
P. falciparum = assay: Antimalarial screening against asexual blood stage P. falciparum; type: cell-based, Plasmodium falciparum; details: for P. fal pIC50 / IC50: potency against asexual blood stage of P. falciparum, average values n ≥ 2, s.d. < 0.3; for fold potency decrease compared with 30: relative to 30; for IC50: Plasmodium falciparum, read-out: P. fal pIC50 (converted)
Procedure: Previously, Howard et al. reported (sub)micromolar activity against P. falciparum for a series of BIPPO analogs with benzyl substituents. To further understand the structure–activity relationship (SAR) of this interesting scaffold, close analogs of 3 with substituents at R^1–R^4 positions were tested against P. falciparum and human MRC-5 cells as the control for non-specific toxicity (Table 1).
The assay for antimalarial activity was carried out as described in detail in Pereira et al..

human MRC-5 cells = assay: Non-specific toxicity control on human MRC-5 cells; type: cell-based
[1] = Non-specific toxicity control on human MRC-5 cells; type: cell-based; details: human MRC-5 cells; average values n ≥ 2, s.d. < 0.3; read-out: MRC-5 pIC50 (converted)
[2] = Metabolic stability in mouse liver microsomes (S9 fraction); type: in vitro ADME; details: for parent compound left: one hour of incubation; for metabolic stability relative to diclofenac: mouse Phase I assay
Procedure: (§1) Thus, compounds 23, 28–30, 47a and 47b with high potencies (pIC50 > 6) were evaluated for their in vitro metabolic stability in human and mouse liver microsomes (S9 fraction) with diclofenac as a reference compound. As summarized in Figure 2, substituents in the R^4 position affect metabolic stability. […] Their stability against mouse liver microsomes is lower, especially for their Phase I metabolism; only 38% and 26% of the parent compounds are left for 23 and 29 after one hour of incubation. […] For the adamantanyl analogs 30, 47a and 47b, metabolic stability differs drastically, with Phase I identified as the main metabolic pathway. Analog 47b was metabolized for >95% within 30 min with mouse liver microsomes, while 90% of 47a (tert-butyl analog) was left after one hour of incubation.
(§2) The assay for metabolic stability in human and mouse liver microsomal fractions (S9) was performed as described.

[3] = Metabolic stability in human liver microsomes (S9 fraction); type: in vitro ADME; details: one hour incubation, Phase I and Phase II metabolism
Procedure: as §1, §2

[4] = mouse liver microsomes, phase not given
[5] = mouse liver microsomes, Phase I metabolism

Compound | P. fal pIC50 (P. falciparum) | metabolic stability in mouse liver microsomes (in words) ([2]; mouse liver microsomes) | metabolic stability relative to diclofenac [2] | parent compound remaining [3] | IC50 [1] | other results
5-(Benzyloxy)-3-isopropyl-1,6-dihydro-7H-pyrazolo[4,3-d]pyrimidin-7-one [compound 5] | 5.2 | – | – | – | – | fold decreased antimalarial potency compared to 3 (P. falciparum; P. falciparum, relative to 3): 5- to 25 fold; MRC-5 pIC50 (human MRC-5 cells; human MRC-5 cells, average values n ≥ 2, s.d. < 0.3): < 4.2
CC(C)c1n[nH]c2c(=O)[nH]c(C3CCCCC3)nc12 [compound 23, 5-Cyclohexyl-3-isopropyl-1,6-dihydro-7H-pyrazolo[4,3-d]pyrimidin-7-one] | – | favorable metabolic stability | metabolized faster than diclofenac | more than 50% | > 63.1 µM | fold potency increase compared with 3 (P. falciparum; P. falciparum, relative to 3): five; parent compound left [2, 5]: 38%
CC(C)c1n[nH]c2c(=O)[nH]c(C3CCC(F)(F)CC3)nc12 [compound 28, 5-(4,4-Difluorocyclohexyl)-3-isopropyl-1,6-dihydro-7H-pyrazolo[4,3-d]pyrimidin-7-one] | 6.0 | favorable metabolic stability | – | more than 50% | > 63.1 µM | IC50 (P. falciparum): < 1 µM; parent compound left [2, 4]: 68%
CC(C)c1n[nH]c2c(=O)[nH]c(C34CCC(CC3)CC4)nc12 [compound 29, 5-(Bicyclo[2.2.2]octan-1-yl)-3-isopropyl-1,6-dihydro-7H-pyrazolo[4,3-d]pyrimidin-7-one] | – | favorable metabolic stability | metabolized faster than diclofenac | more than 50% | > 63.1 µM | parent compound left [2, 5]: 26%
CC(C)c1n[nH]c2c(=O)[nH]c(C34CC5CC(CC(C5)C3)C4)nc12 [compound 30, 5-(Adamantan-1-yl)-3-isopropyl-1,6-dihydro-7H-pyrazolo[4,3-d]pyrimidin-7-one] | – | – | metabolized faster than diclofenac | – | > 63.1 µM | fold potency increase compared with 3 (P. falciparum; P. falciparum, relative to 3): eight; toxicity for human MCR-5 cells (in words) (human MRC-5 cells): without showing noticeable toxicity

Further lines, with some results ahead:

P. fal pIC50 (P. falciparum) | metabolic stability in mouse liver microsomes (in words) ([2]; mouse liver microsomes) | metabolic stability relative to diclofenac [2] | parent compound remaining [3] | Compound | IC50 [1] | other results
– | favorable metabolic stability | – | – | CC(C)(C)c1n[nH]c2c(=O)[nH]c(C34CC5CC(CC(C5)C3)C4)nc12 [47a, 5-(Adamantan-1-yl)-3-(tert-butyl)-1,6-dihydro-7H-pyrazolo[4,3-d]pyrimidin-7-one] | > 63.1 µM | fold potency decrease compared with 30 (P. falciparum; P. falciparum): 4 fold; parent compound left [2, 4]: 90%
6.2 | – | metabolized faster than diclofenac | – | O=c1[nH]c(C23CC4CC(CC(C4)C2)C3)nc2c(C3CCCC3)n[nH]c12 [47b, 5-(Adamantan-1-yl)-3-cyclopentyl-1,6-dihydro-7H-pyrazolo[4,3-d]pyrimidin-7-one] | > 63.1 µM | fold potency decrease compared with 30 (P. falciparum; P. falciparum): 2.5 fold; IC50 (P. falciparum): < 1 µM; metabolized ([2]; mouse liver microsomes, within 30 min): > 95%
